Our source for the Ki values is ChEMBL document CHEMBL1133776, “A rapid computational method for lead evolution: description and application to alpha(1)-adrenergic antagonists” (J Med Chem, 2000).

The assay concerns the target T1, Adrenergic receptor alpha-1 (Rattus norvegicus, UniProt P15823+P23944+P43140).
T1 sequence (P15823 whole entry): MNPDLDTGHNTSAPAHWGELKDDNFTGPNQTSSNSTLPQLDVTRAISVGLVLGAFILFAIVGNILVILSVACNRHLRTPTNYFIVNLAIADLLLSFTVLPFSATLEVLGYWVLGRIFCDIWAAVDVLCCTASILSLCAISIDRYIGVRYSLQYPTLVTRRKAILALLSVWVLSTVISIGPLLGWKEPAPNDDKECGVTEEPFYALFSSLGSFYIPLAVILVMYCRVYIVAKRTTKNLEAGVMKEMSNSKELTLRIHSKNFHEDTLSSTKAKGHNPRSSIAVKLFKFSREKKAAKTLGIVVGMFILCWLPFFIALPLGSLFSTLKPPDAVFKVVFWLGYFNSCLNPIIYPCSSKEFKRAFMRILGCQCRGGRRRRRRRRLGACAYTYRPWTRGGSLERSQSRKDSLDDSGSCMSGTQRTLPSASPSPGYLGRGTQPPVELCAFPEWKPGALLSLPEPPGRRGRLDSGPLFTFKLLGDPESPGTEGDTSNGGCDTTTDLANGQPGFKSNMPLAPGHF
T1 sequence (P23944 whole entry): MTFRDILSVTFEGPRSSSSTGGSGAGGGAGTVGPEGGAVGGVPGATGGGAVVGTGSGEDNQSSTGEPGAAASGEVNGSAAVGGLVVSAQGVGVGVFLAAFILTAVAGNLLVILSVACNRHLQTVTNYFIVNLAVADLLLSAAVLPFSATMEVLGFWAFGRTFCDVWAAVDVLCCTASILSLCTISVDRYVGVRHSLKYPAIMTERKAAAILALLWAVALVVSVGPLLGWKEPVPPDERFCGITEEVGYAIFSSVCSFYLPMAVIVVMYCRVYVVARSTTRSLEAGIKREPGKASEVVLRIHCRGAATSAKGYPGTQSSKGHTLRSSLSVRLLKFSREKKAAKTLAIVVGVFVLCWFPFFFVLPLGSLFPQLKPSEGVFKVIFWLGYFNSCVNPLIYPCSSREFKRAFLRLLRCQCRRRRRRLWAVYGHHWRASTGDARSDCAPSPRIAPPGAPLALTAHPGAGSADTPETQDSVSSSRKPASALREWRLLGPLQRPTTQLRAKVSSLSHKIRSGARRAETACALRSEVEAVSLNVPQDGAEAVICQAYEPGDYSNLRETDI
T1 sequence (P43140 whole entry): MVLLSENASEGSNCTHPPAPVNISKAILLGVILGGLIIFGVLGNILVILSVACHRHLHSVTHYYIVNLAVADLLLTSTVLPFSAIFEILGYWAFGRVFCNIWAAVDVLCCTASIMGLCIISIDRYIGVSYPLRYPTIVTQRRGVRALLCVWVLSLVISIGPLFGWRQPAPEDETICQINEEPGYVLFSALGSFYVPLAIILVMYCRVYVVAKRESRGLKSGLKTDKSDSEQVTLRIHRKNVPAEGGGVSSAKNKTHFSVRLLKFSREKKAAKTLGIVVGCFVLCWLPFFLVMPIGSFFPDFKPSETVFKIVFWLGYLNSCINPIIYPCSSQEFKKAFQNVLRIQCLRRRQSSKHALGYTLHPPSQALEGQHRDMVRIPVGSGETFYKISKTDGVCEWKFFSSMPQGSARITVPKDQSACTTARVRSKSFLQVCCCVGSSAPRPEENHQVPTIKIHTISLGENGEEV
Briefly: Evaluated for binding affinity against alpha-1 adrenergic receptor. It counts as protein assay.

The term Ki denotes the dissociation constant of the complex between target and ligand, obtained from inhibition or displacement. A higher Ki goes with a looser hold on the target. Regarding `COc1cccc(OC)c1OCCNCC1COc2ccccc2O1` (stereo unspecified), the Ki was 0.54 nM.
